{
  "source": "patent US6107549A",
  "about": "“Genetically engineered plant resistance to thiazopyr and other pyridine herbicides” (Monsanto Company, priority 1999, dated 2000)",
  "key": {"tomato": {"tested_on": "tomato", "experiment": "Growth chamber assay, pre-emergence application", "format": "in vivo", "conditions": "PE", "description": "Growth chamber and greenhouse assay for resistance. Pyridine herbicide resistance in transgenic tomato expressing RLE3 was examined in soil with pre-emergence (PE) applications of thiazopyr. Tomato seeds (R1 of #8255 and #8256, and control UC82B) were planted in 100 cm^2 pots (12 seeds per pot) in artificial METROMIX™ soil at a depth of 0.5 cm. Pots were watered and oversprayed with a 50% acetone/water solution (2 ml) containing thiazopyr at use rates of 0, 34, 67, 140, and 280 g/ha (grams per hectare). Pots were placed in a growth chamber (12 hr photoperiod; 60% humidity, 25° C. night/29° C. day; 600 μE light) with daily watering by subirrigation."}, "tobacco seedlings": {"tested_on": "tobacco seedlings", "experiment": "Root elongation assay for thiazopyr resistance", "format": "in vivo", "description": "Root elongation assay for thiazopyr resistance. Transgenic tobacco R1 seeds (line #37432) were sterilized with a 0.25% sodium hypochlorite solution and repeatedly washed with water. Just prior to solidification of agar (~45° C.), stock solutions of thiazopyr in DMSO (1% final concentration) was added; the final concentrations of thiazopyr were 0, 0.05, 0.1, and 0.5 μM. The liquid agar was vortexed and dispensed (3 ml) into glass test tubes. Seeds (~12 per test tube) were placed on the surface of solidified agar and stored in a growth chamber at 25° C. with a 12 hr day and night cycle. Root development and length were monitored visually with time. Control experiments employed untransformed tobacco seeds from the Samson variety."}, "RLE1": {"biological_target": "T1, RLE1 (Oryctolagus cuniculus, UniProt P12337)", "T1 construct": "tissue Professor J. Ozols; host or cells: rabbit liver", "T1 sequence (P12337 19-565)": "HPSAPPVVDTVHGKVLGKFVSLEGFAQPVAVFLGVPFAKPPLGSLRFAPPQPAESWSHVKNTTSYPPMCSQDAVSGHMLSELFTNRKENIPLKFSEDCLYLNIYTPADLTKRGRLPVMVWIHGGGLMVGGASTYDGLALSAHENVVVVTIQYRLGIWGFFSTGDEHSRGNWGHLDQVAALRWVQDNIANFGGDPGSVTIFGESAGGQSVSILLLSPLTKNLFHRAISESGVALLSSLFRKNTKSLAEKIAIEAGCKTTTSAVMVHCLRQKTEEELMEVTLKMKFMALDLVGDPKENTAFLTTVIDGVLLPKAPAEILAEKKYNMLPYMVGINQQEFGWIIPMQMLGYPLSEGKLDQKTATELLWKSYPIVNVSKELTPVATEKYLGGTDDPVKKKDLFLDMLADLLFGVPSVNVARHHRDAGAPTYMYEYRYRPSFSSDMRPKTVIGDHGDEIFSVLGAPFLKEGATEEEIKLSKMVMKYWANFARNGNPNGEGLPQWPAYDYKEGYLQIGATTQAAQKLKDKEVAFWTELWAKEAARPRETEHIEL", "experiment": "Thiazopyr hydrolysis by RLE1 preparation from Prof. Ozols", "format": "biochemical, rabbit", "conditions": "purified RLE1 preparation from Prof. Ozols", "description": "Esterase activity assays. Esterase activity was measured in vitro by conversion of either [^14 C]thiazopyr or [^14 C]MON 14300 to their corresponding monoacid. Pyridine-esterase activity was assayed during protein purification and from tissue extracts of transgenic plants. The homogenizing buffer for plant tissues consisted of 100 mM Tris pH 8.0, 1 mM EDTA, 1 mM DTT, and 10% glycerol in water. Plant tissues (1 g/ml buffer) including leaves, seeds, flowers, seedlings, etc. were homogenized in conical centrifuge tubes using a spinning pestle at 4° C. Following centrifugation (12,000× g), the supernatant (250 μl) was assayed immediately for esterase activity by incubation with [^14 C]thiazopyr or [^14 C]MON 14300 (4 μg) in 0.1 M Tris pH 8.0 buffer (50 μl) at 37° C. The reaction was sampled (100 μL) at various times (0.5 to 100 hr) to generate a kinetic profile of monoacid formation. The reaction was stopped by addition of 1% trifluoroacetic acid in acetonitrile (v/v, 150 μl). Following centrifugation (12,000× g for 3 min), the supernatant was analyzed by HPLC/RAD (radioactivity detection) to resolve the monoacid from the parent herbicide and other metabolites. Control reactions in the absence of the esterase recovered un-reacted thiazopyr or MON 14300 for the duration of experiments. […]"}, "pyridine-esterase": {"tested_on": "pyridine-esterase", "format": "biochemical, rabbit", "description": "Esterase activity assays. Esterase activity was measured in vitro by conversion of either [^14 C]thiazopyr or [^14 C]MON 14300 to their corresponding monoacid. Pyridine-esterase activity was assayed during protein purification and from tissue extracts of transgenic plants. The homogenizing buffer for plant tissues consisted of 100 mM Tris pH 8.0, 1 mM EDTA, 1 mM DTT, and 10% glycerol in water. Plant tissues (1 g/ml buffer) including leaves, seeds, flowers, seedlings, etc. were homogenized in conical centrifuge tubes using a spinning pestle at 4° C. Following centrifugation (12,000× g), the supernatant (250 μl) was assayed immediately for esterase activity by incubation with [^14 C]thiazopyr or [^14 C]MON 14300 (4 μg) in 0.1 M Tris pH 8.0 buffer (50 μl) at 37° C. The reaction was sampled (100 μL) at various times (0.5 to 100 hr) to generate a kinetic profile of monoacid formation. The reaction was stopped by addition of 1% trifluoroacetic acid in acetonitrile (v/v, 150 μl). Following centrifugation (12,000× g for 3 min), the supernatant was analyzed by HPLC/RAD (radioactivity detection) to resolve the monoacid from the parent herbicide and other metabolites. Control reactions in the absence of the esterase recovered un-reacted thiazopyr or MON 14300 for the duration of experiments. Esterase activity was also assayed during protein purification following a similar procedure except a single time-point (1-2 hrs) of incubation was selected within the linear range of reaction. In vitro assays also employed three commonly used calorimetric (p-nitrophenyl butyrate) or fluorescent (4-methyl umbelliferyl butyrate and 5-bromo-4-chloro-3-indolylacetate) substrates. These substrates are useful in rapidly and qualitatively detecting general esterase activity.\nTissue extracts from 3 tobacco R1 seedlings were employed for further studies. Two of the lines (#37437 and #37432) expressed high levels of esterase (~0.5%) and one line (#37436) which expressed no pyridine-esterase was used as negative control. Tissue extracts were incubated with [^14 C]MON 14300 and formation of the monoacid monitored with time. […] In comparison, less that 2% monoacid was detected in line (#37436). […] First, pyridine-esterase was capable of driving the hydrolysis reaction to completion with no apparent product inhibition, and second, there was no endogenous esterase activity in tobacco which catalyzed MON 14300 hydrolysis."}, "tomato seedlings": {"tested_on": "tomato seedlings", "conditions": "in vivo", "description": "Esterase activity was also monitored in plants. [^14 C]Thiazopyr or [^14 C]MON 14300 (1-4 μg in acetonitrile) was applied directly to shoots and cotyledons of young seedlings. After 2 days in a growth chamber, tobacco or tomato seedlings were washed with methanol and water, then homogenized (TISSUMIZER™, Tekmar-Dohrmann, Cincinnatti, Ohio) in 5% (v/v) trifluoroacetic acid in acetonitrile (fresh w/v ratio of 2/1). Homogenates were clarified by centrifugation (12,000× g) and supernatants analyzed by HPLC/RAD for the formation of the monoacid metabolite.\nMON 14300 was applied to the shoot of 2-day old seedlings. Two days after treatment, seedlings were washed with methanol and tissue extracts analyzed by HPLC. The HPLC chromatograms show signals from both the UV254 nm (upper trace, FIG. 5) and radioactivity (lower trace, FIG. 5) detectors. For the purpose of metabolite identification, plant extracts were co-injected with a mixture of authentic standards visible under UV detection. […] In both transgenic lines, small levels of more polar products, presumably from further degradation of the monoacid as reported by McClanahan et al. (1995), were detected near the solvent front."}},
  "data": [
    {"compound": "COC(=O)c1c(C(F)F)nc(C(F)(F)F)c(C2=NCCS2)c1CC(C)C", "note": "[thiazopyr]", "values": [
      {"measurement": "difference in vegetative growth between UC82B and #8256", "setting": "tomato; 34 g/ha", "value": "no detectable difference in vegetative growth"},
      {"measurement": "stunting", "setting": "tomato; UC82B control, 67 g/ha", "value": "about 20%"},
      {"measurement": "growth and survival", "setting": "tomato; UC82B control, 140 g/ha", "value": "never grew beyond the cotyledon stage and eventually all died"},
      {"measurement": "stunting", "setting": "tomato; transgenic #8256, 67 g/ha", "value": "none"},
      {"measurement": "growth and survival", "setting": "tomato; transgenic #8256, 140 g/ha", "value": "numerous healthy seedlings that were stunted but otherwise normal"},
      {"measurement": "resistant seedlings out of 12 to 16 seeds", "setting": "tomato; transgenic R1, 140 and 280 g/ha", "value": "approximately 4"},
      {"measurement": "effect on flower development, fruit set, and seed production", "setting": "tomato; transgenic plants, 140 and 280 g/ha", "value": "no effect"},
      {"measurement": "inhibition at 0.1 µM", "setting": "tobacco seedlings; Nicotiana tabacum, control (Samson) seedlings, 0.1 μM thiazopyr", "value": "~50", "unit": "%"},
      {"measurement": "root length", "setting": "tobacco seedlings; transgenic line #37432, 0.1 μM thiazopyr", "value": "normal root length"},
      {"measurement": "root inhibition", "setting": "tobacco seedlings; transgenic line #37432, 0.5 μM thiazopyr", "value": "Root inhibition was observed"},
      {"measurement": "thiazopyr hydrolytic activity", "setting": "RLE1", "value": "demonstrated thiazopyr hydrolysis"},
      {"measurement": "thiazopyr hydrolytic activity", "setting": "RLE1; listed as Thiazopyr", "value": "could be demonstrated with RLE1"}
    ]},
    {"compound": "COC(=O)c1c(C(F)F)nc(C(F)(F)F)c(C(=O)n2cccn2)c1CC(C)C", "note": "[MON 14300]", "values": [
      {"measurement": "hydrolysis to monoacid metabolite", "setting": "pyridine-esterase; non-expressing line #37436, FIG. 3", "value": "no hydrolysis"},
      {"measurement": "monoacid detected", "setting": "pyridine-esterase; tobacco, seedling tissue extract", "value": "< 2", "unit": "%"},
      {"measurement": "metabolism in plants", "setting": "tomato seedlings", "value": "little to no metabolism in plants"},
      {"measurement": "monoacid in residue", "setting": "tomato seedlings; tomato, 48 h", "value": 2.5, "unit": "%"},
      {"measurement": "parent as primary residue", "setting": "tomato seedlings; tomato, 48 h", "value": 90.8, "unit": "%"}
    ]}
  ]
}
